In general, IC50 refers to the point on the concentration scale where inhibition reaches its midpoint.

In this assay the target is T1, Recombinant human TYK2 catalytic domain (amino acids 871-1187) (Homo sapiens, UniProt P29597).
T1 construct: catalytic domain (amino acids 871-1187)
T1 sequence (P29597 871-1187): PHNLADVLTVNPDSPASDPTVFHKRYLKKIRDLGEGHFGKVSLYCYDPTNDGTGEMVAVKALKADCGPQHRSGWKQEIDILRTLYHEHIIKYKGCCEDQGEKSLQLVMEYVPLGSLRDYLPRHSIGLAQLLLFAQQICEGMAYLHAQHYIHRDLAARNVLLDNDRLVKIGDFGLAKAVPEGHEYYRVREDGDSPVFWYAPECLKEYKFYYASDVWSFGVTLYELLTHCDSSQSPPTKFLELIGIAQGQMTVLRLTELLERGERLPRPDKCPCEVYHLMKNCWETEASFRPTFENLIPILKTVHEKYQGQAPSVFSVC
The assay is described as follows: TYK2 radioactive assay polyGT substrate. Further: 0.1 µM ATP. The format is biochemical. How it is done:
After 120 min at 30° C., reactions were stopped by adding 25 μL/well of 150 mM phosphoric acid. […] Plates were washed 6 times with 300 μL per well of a 75 mM phosphoric acid solution and the bottom of the plates is sealed. […] Kinase activity is calculated by subtracting counts per min (cpm) obtained in the presence of a positive control inhibitor (10 μM staurosporine) from cpm obtained in the presence of vehicle. The ability of a test compound to inhibit this activity (or percentage inhibition) is determined as: […]
cpm test compound=cpm determined for sample with test compound present cpm control=cpm determined for sample with positive control inhibitor cpm vehicle=cpm determined in the presence of vehicle
Dose dilution series were prepared for the compounds enabling the testing of dose-response effects in the TYK2 assay and the calculation of the IC50 for each compound. Each compound is routinely tested at concentration of 20 μM followed by a 1/5 serial dilution, 10 points in a final concentration of 1% DMSO.
With `Cc1cc(C#N)ncc1Oc1cc(Nc2ccc(C(=O)N3CC4(CCO4)C3)cn2)c2ncn(C)c2n1` [Compound 120, 4-methyl-5-[3-methyl-7-[[5-(3-oxa-6-azaspiro[3.3]heptane-6-carbonyl)-2-pyridyl]amino]imidazo[4,5-b]pyridin-5-yl]oxy-pyridine-2-carbonitrile], the 50% inhibitory concentration (IC50) turned out to be 1.57 nM.

Take `COC1(C)CN(C(=O)c2ccc(Nc3cc(Oc4cnc(C#N)cc4C)nc4c3ncn4C)nc2)C1` [Compound 121, 5-[7-[[5-(3-methoxy-3-methyl-azetidine-1-carbonyl)-2-pyridyl]amino]-3-methyl-imidazo[4,5-b]pyridin-5-yl]oxy-4-methyl-pyridine-2-carbonitrile]: the IC50 is 1.9 nM.

On to `Cc1cc(C#N)ncc1Oc1cc(Nc2ccc(C(=O)N3CC(C(=O)OC(C)(C)C)C3)cn2)c2ncn(C)c2n1` [Compound 122, tert-butyl 1-[6-[[5-[(6-cyano-4-methyl-3-pyridyl)oxy]-3-methyl-imidazo[4,5-b]pyridin-7-yl]amino]pyridine-3-carbonyl]azetidine-3-carboxylate], for which the IC50 came to 3.03 nM.

With `Cc1cc(C#N)ncc1Oc1cc(Nc2ccc(C(=O)N3CC4(CN(C)C4)C3)cn2)c2ncn(C)c2n1` [Compound 123, 4-methyl-5-[3-methyl-7-[[5-(6-methyl-2,6-diazaspiro[3.3]heptane-2-carbonyl)-2-pyridyl]amino]imidazo[4,5-b]pyridin-5-yl]oxy-pyridine-2-carbonitrile], the IC50 amounted to 9.38 nM.

As for `Cc1cc(C#N)ncc1Oc1cc(Nc2ccc(C(=O)N3CCC(O)CC3)cn2)c2ncn(C)c2n1` [Compound 124, 5-[7-[[5-(4-hydroxypiperidine-1-carbonyl)pyridin-2-yl]amino]-3-methylimidazo[4,5-b]pyridin-5-yl]oxy-4-methylpyridine-2-carbonitrile], the 50% inhibitory concentration (IC50) turned out to be 2.51 nM.

`COC1CCN(C(=O)c2ccc(Nc3cc(Oc4cnc(C#N)cc4C)nc4c3ncn4C)nc2)CC1` [Compound 125, 5-[7-[[5-(4-methoxypiperidine-1-carbonyl)pyridin-2-yl]amino]-3-methylimidazo[4,5-b]pyridin-5-yl]oxy-4-methylpyridine-2-carbonitrile]: the concentration for half-maximal inhibition (IC50) turned out to be 2.26 nM.

For `Cc1cc(C#N)ncc1Oc1cc(Nc2ccc(C(=O)N3CCC(N(C)C)CC3)cn2)c2ncn(C)c2n1` [Compound 126, 5-[7-[[5-[4-(dimethyalmino)piperidine-1-carbonyl]pyridin-2-yl]amino]-3-methylimidazo[4,5-b]pyridin-5-yl]oxy-4-methylpyridine-2-carbonitrile], the IC50 is 5.54 nM.

Turning to `Cc1cc(C#N)ncc1Oc1cc(Nc2ccc(C(=O)N3CC[C@@H](O)C3)cn2)c2ncn(C)c2n1` [Compound 127, 5-[7-[[5-[(3R)-3-hydroxypyrrolidine-1-carbonyl]pyridin-2-yl]amino]-3-methylimidazo[4,5-b]pyridin-5-yl]oxy-4-methylpyridine-2-carbonitrile], the IC50 stood at 3.36 nM.

For the compound `Cc1cc(C#N)ncc1Oc1cc(Nc2ccc(C(=O)N3CCN(C(=O)OC(C)(C)C)CC3)cn2)c2ncn(C)c2n1` [Compound 128, 4-{6-[5-(6-Cyano-4-methyl-pyridin-3-yloxy)-3-methyl-3H-imidazo[4,5-b]pyridin-7-ylamino]-pyridine-3-carbonyl}-piperazine-1-carboxylic acid tert-butyl ester], the IC50 was determined as 5.87 nM.

For `COCCO[C@@H]1CCN(C(=O)c2ccc(Nc3cc(Oc4cnc(C#N)cc4C)nc4c3ncn4C)nc2)C1` [Compound 129, 5-[7-[[5-[(3R)-3-(2-methoxyethoxy)pyrrolidine-1-carbonyl]pyridin-2-yl]amino]-3-methylimidazo[4,5-b]pyridin-5-yl]oxy-4-methylpyridine-2-carbonitrile], the IC50 amounted to 5.84 nM.

For `Cc1cc(C#N)ncc1Oc1cc(Nc2ccc(C(=O)N3CCC(N(C)C(=O)OC(C)(C)C)C3)cn2)c2ncn(C)c2n1` (stereo not drawn) [Compound 130, (1-{6-[5-(6-Cyano-4-methyl-pyridin-3-yloxy)-3-methyl-3H-imidazo[4,5-b]pyridin-7-ylamino]-pyridine-3-carbonyl}-pyrrolidin-3-yl)-methyl-carbamic acid tert-butyl ester], the IC50 is 4.67 nM.

`Cc1cc(C#N)ncc1Oc1cc(Nc2ccc(C(=O)N3CCC4(COC4)C3)cn2)c2ncn(C)c2n1` [Compound 131, 4-methyl-5-[3-methyl-7-[[5-(2-oxa-7-azaspiro[3.4]octane-7-carbonyl)pyridin-2-yl]amino]imidazo[4,5-b]pyridin-5-yl]oxypyridine-2-carbonitrile]: the IC50 came out at 2.87 nM.

Take `Cc1cc(C#N)ncc1Oc1cc(Nc2ccc(C(=O)N3CC(CN(C)C)C3)cn2)c2ncn(C)c2n1` [Compound 132, 5-[7-[[5-[3-[(dimethylamino)methyl]azetidine-1-carbonyl]pyridin-2-yl]amino]-3-methylimidazo[4,5-b]pyridin-5-yl]oxy-4-methylpyridine-2-carbonitrile]: the IC50 worked out at 8.93 nM.

For `Cc1cc(C#N)ncc1Oc1cc(Nc2ccc(C(=O)N3CC4(COC4)C3)cn2)c2ncn(C)c2n1` [Compound 134, 4-methyl-5-[3-methyl-7-[[5-(2-oxa-6-azaspiro[3.3]heptane-6-carbonyl)pyridin-2-yl]amino]imidazo[4,5-b]pyridin-5-yl]oxypyridine-2-carbonitrile], the IC50 was 2.1 nM.

As to `Cc1cc(C#N)ncc1Oc1cc(Nc2ccc(C(=O)N3CC(CO)(CO)C3)cn2)c2ncn(C)c2n1` [Compound 135, 5-[7-[[5-[3,3-bis(hydroxymethyl)azetidine-1-carbonyl]pyridin-2-yl]amino]-3-methylimidazo[4,5-b]pyridin-5-yl]oxy-4-methylpyridine-2-carbonitrile], the 50% inhibitory concentration (IC50) was 2.08 nM.

`Cc1cc(C#N)ncc1Oc1cc(Nc2ccc(C(=O)N(C)CCO)cn2)c2ncn(C)c2n1` [Compound 136, 6-[[5-(6-cyano-4-methylpyridin-3-yl)oxy-3-methylimidazo[4,5-b]pyridin-7-yl]amino]-N-(2-hydroxyethyl)-N-methylpyridine-3-carboxamide]: the half-maximal inhibitory concentration (IC50) turned out to be 2.76 nM.

For `Cc1cc(C#N)ncc1Oc1cc(Nc2ccc(N3CC(N(C)C)C3)nn2)c2ncn(C)c2n1` [Compound 143, 5-[7-[[6-[3-(dimethylamino)azetidin-1-yl]pyridazin-3-yl]amino]-3-methylimidazo[4,5-b]pyridin-5-yl]oxy-4-methylpyridine-2-carbonitrile], the IC50 amounted to 4.55 nM.

Take `Cc1cc(C#N)ncc1Oc1cc(Nc2ccc(N3C[C@H]4C[C@@H]3CN4C)nn2)c2ncn(C)c2n1` [Compound 152, 4-methyl-5-[3-methyl-7-[[6-[(1R,4R)-5-methyl-2,5-diazabicyclo[2.2.1]heptan-2-yl]pyridazin-3-yl]amino]imidazo[4,5-b]pyridin-5-yl]oxypyridine-2-carbonitrile]: the IC50 was 12.5 nM.

For `Cc1cc(C#N)ncc1Oc1cc(Nc2ccc(C(=O)N3CCOC(C(F)(F)F)C3)cn2)c2ncn(C)c2n1` (stereo not drawn) [Compound 155, 4-methyl-5-[3-methyl-7-[[5-[2-(trifluoromethyl)morpholine-4-carbonyl]pyridin-2-yl]amino]imidazo[4,5-b]pyridin-5-yl]oxypyridine-2-carbonitrile], the IC50 was 2.05 nM.

With `Cc1cc(C#N)ncc1Oc1cc(Nc2ccc(C(=O)N3CCOC(C4CC4)C3)cn2)c2ncn(C)c2n1` (stereo not drawn) [Compound 156, 5-[7-[[5-(2-cyclopropylmorpholine-4-carbonyl)pyridin-2-yl]amino]-3-methylimidazo[4,5-b]pyridin-5-yl]oxy-4-methylpyridine-2-carbonitrile], the 50% inhibitory concentration (IC50) is 1.75 nM.

`Cc1cc(C#N)ncc1Oc1cc(Nc2ccc(C(=O)N3CCOC[C@H]3C(C)C)cn2)c2ncn(C)c2n1` [Compound 157, 4-methyl-5-[3-methyl-7-[[5-[(3R)-3-propan-2-ylmorpholine-4-carbonyl]pyridin-2-yl]amino]imidazo[4,5-b]pyridin-5-yl]oxypyridine-2-carbonitrile]: the half-maximal inhibitory concentration (IC50) stood at 0.97 nM.

On to `Cc1cc(C#N)ncc1Oc1cc(Nc2ccc(C(=O)N3CCOCC3C3CC3)cn2)c2ncn(C)c2n1` (stereo not drawn) [Compound 159, 5-[7-[[5-(3-cyclopropylmorpholine-4-carbonyl)pyridin-2-yl]amino]-3-methylimidazo[4,5-b]pyridin-5-yl]oxy-4-methylpyridine-2-carbonitrile], for which the half-maximal inhibitory concentration (IC50) came to 1.02 nM.

Turning to `Cc1cc(C#N)ncc1Oc1cc(Nc2ccc(C(=O)N3CCOC(C#N)C3)cn2)c2ncn(C)c2n1` (stereo not drawn) [Compound 160, 4-[6-[[5-(6-cyano-4-methylpyridin-3-yl)oxy-3-methylimidazo[4,5-b]pyridin-7-yl]amino]pyridine-3-carbonyl]morpholine-2-carbonitrile], the IC50 came to 1.39 nM.

As for `Cc1cc(C#N)ncc1Oc1cc(Nc2ccc(C(=O)N3CCOCC3C#N)cn2)c2ncn(C)c2n1` (stereo not drawn) [Compound 162, 4-[6-[[5-(6-cyano-4-methylpyridin-3-yl)oxy-3-methylimidazo[4,5-b]pyridin-7-yl]amino]pyridine-3-carbonyl]morpholine-3-carbonitrile], the IC50 stood at 2.06 nM.

Values taken from US11564923B2, “Compounds and pharmaceutical compositions thereof for the treatment of inflammatory disorders” (Galapagos NV, priority 2017, dated 2023).
